Test results published in patent US10815254B2, “Biflavone-zinc complex, preparation method and application thereof” (NANJING FORESTRY UNIVERSITY, priority 2017, dated 2020).

What was measured:
[1] = ABTS method, ABTS+. free radical scavenging; settings: 25° C., 5 min, 730 nm, from linear equation of scavenging rate vs concentration; read-out: IC50 for scavenging ABTS^+. free radicals
Experimental: Determination of […]. free radical ion scavenging capacity of the blank sample: at 25° C., 2.9 mL ABTS^+. free radical ion working solution was added into a 10 mL sample tube, 100 μL DMSO was added, after reacting for 5 min, the UV-vis spectrum was measured, and the absorption intensity A0 at 730 nm was recorded.
Determination of ABTS^+. free radical ion scavenging capacity of the samples: at 25° C., 2.9 mL ABTS^+. free radical ion working solution was added into a 10 mL sample tube, 100 μL samples of different concentrations that were dissolved in DMSO were added, after reacting for 5 min, the UV-vis spectrum was measured, and the absorption intensity A1 at 730 nm was recorded, and the ABTS^+. free radical ion scavenging rate was calculated according to Formula 4.
The ABTS^+. free radical scavenging capacities of the Ame and the Ame-Zn complex are concentration dependent. Within a certain range, the scavenging rate is linear with the concentration. The curve of the scavenging rate and the concentration (c) is plotted in the present invention to obtain a corresponding linear equation, and the maximum half-inhibitory concentration (IC50 value) is calculated.

herring sperm DNA (fDNA) = assay: Interaction with fDNA by UV-vis spectroscopy, fluorescence spectroscopy and viscosity method; type: binding; settings: UV-vis, fluorescence (fDNA-EB system), viscosity
Description: UV-vis spectroscopy, fluorescence spectroscopy and viscosity method are used to study the interaction between the Ame/Ame-Zn complex and herring sperm DNA (fDNA) to further reveal the mechanism of antitumor activity, the obtained spectra are shown in FIGS. 7-11. […] Thereby, it can be speculated that the mechanism of antitumor activity of the Ame and its complex may be that Ame or the complex thereof enters the interior of the cell and intercalates with the DNA strand to cause apoptosis. Since the interaction of the complex with DNA is stronger than of the Ame, the antitumor activity thereof is also stronger than of the Ame.

[2] = Pyrogallol auto-oxidation method, O2-. free radical scavenging; settings: Tris-HCl pH 8.20, 25° C., 322 nm, read-out: IC50 to scavenge O2^−. free radical
Experimental: The free radical scavenging effects of the Ame and the Ame-Zn complex were studied by pyrogallol auto-oxidation method and ABTS method with the following steps:
(1) Pyrogallol Auto-Oxidation Method
Determination of auto-oxidation rate V0 of pyrogallol: 2 mL Tris-HCl buffer (pH=8.20) was added to a 10 mL sample tube at 25° C., 100 μL DMSO was added as a control, after adding 0.8 mL distilled water, 0.2 mL pyrogallol solution having a concentration of 2 mmol·L^−1 was added, the mixture was poured into a cuvette after mixing uniformly, the absorbance at 322 nm was measured with pure water as a blank, the A value was recorded every 10 s for a total of 4 min, linear regression was performed with t as the abscissa, and A as the ordinate, straight line slope thereof is V0, and the measurement was performed for three times to obtain an average value. […]

- IC50 [1]: 20.7 µM
- IC50 [2]: 23.3 µM
SMILES: O=c1cc(-c2ccc(O)c(-c3c(O)cc(O)c4c(=O)cc(-c5ccc(O)cc5)oc34)c2)oc2cc(O)cc(O)c12 [Ame, amentoflavone]
- manner of interaction with fDNA (herring sperm DNA (fDNA)): intercalation manner
